Assay results taken from US11072632B2, “Inhibitors of 17β-HSD1, 17β-HSD3 and 17β-HSD10” (UNIVERSITÉ LAVAL, priority 2011, dated 2021).
Like-named read-outs stand apart in the source and are kept apart here.

Experiments:
17β-HSD3 [1] = molecular target: T1, 17β-HSD3 (Homo sapiens, UniProt P37058); experiment: Inhibition of 17β-HSD3 in intact HEK-293 cells; assay type: cell-based; conditions: for inhibition at 0.1 µM / inhibition at 1 µM: HEK293, 1 h
T1 construct: expressed in transfected cells; host or cells: HEK-293 (homogenate)
T1 sequence (P37058 1-310): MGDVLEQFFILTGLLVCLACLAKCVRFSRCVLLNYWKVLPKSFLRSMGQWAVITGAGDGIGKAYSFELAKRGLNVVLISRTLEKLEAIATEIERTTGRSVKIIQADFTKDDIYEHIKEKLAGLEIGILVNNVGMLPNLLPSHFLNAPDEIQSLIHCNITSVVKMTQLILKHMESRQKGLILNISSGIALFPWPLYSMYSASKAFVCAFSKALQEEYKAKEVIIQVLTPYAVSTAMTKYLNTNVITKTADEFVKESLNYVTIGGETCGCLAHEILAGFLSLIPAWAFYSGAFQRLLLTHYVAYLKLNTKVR

17β-HSD3 [2] = molecular target: T1, 17β-HSD3; experiment: Inhibition of 17β-HSD3 in homogenated HEK-293 cells; assay type: biochemical
[3] = read-out: Intact cells (%) (0.1 μM), Table 4, 0.1 μM
[4] = read-out: Homo (%) (0.01 μM), Table 4
[5] = read-out: Homo (%) (0.1 μM), Table 4
[6] = read-out: Homo (%) (1.0 μM), Table 4, 1.0 μM
[7] = Table 2 (17β-HSD3), [14C]-Δ4-dione 50 nM into [14C]-T, read-out: Homo (%) (0.01 μM)

| Compound | inhibition at 0.1 µM (17β-HSD3 [1]; [3]) | inhibition at 0.01 µM (17β-HSD3 [2]; [4]) | inhibition at 0.1 µM (17β-HSD3 [2]; [5]) | inhibition at 1 µM (17β-HSD3 [2]; [6]) | other results |
| --- | --- | --- | --- | --- | --- |
| CCCN(CCN1C[C@]2(CC[C@@]3(C)[C@@H](CC[C@@H]4[C@@H]3CC[C@]3(C)C(=O)CC[C@@H]43)C2)OC1=O)C(=O)CC [Compound 23g, N-{(3R,5S,8R,9S,10S,13S,14S)-10,13-dimethyl-2′,17-dioxohexadecahydro-3′H-spiro[cyclopenta[α]phenanthrene-3,5′-[1,3]oxazolidine-3′-yl]ethyl}-N-propylpropanamide] | 25% | 0% | 35% | 80% |  |
| C[C@]12CC[C@](O)(CN3CCN(Cc4cc(C(F)(F)F)ccc4C(F)(F)F)CC3)C[C@@H]1CC[C@@H]1[C@@H]2CC[C@]2(C)C(=O)CC[C@@H]12 [Compound 10h, (3α,5α)-3-({4-[2,5-bis(trifluoromethyl)benzyl]piperazin-1-yl}methyl)-3-hydroxyandrostan-17-one] |  |  |  |  | Intact cells (%) (0.1 μM) (17β-HSD3 [1]; Table 3, 0.1 μM): 12%; Homo (%) (0.01 μM) (17β-HSD3 [2]; Table 3): 18%; Homo (%) (0.1 μM) (17β-HSD3 [2]; Table 3): 85% |
| Cc1ccc(CN2C[C@]3(CC[C@@]4(C)[C@@H](CC[C@@H]5[C@@H]4CC[C@]4(C)C(=O)C(C)(C)C[C@@H]54)C3)OC2=O)cc1 [Compound 18, (3R,5S,8R,9S,10S,13S,14S)-10,13,16,16-tetramethyl-3′-(4-methylbenzyl)tetrahydrodecahydro-2′H-spiro[cyclopenta[α]phenanthrene-3,5′-[1,3]oxazolidine]-2′,17(2H)-dione] | 18% | 2% | 22% | 74% |  |
| CCN(CC)C[C@@]1(O)CC[C@@]2(C)[C@@H](CC[C@@H]3[C@@H]2CC[C@]2(C)C(=O)CC[C@@H]32)C1 [Compound 7c, (3α,5α)-3-[(diethylamino)methyl]-3-hydroxyandrostan-17-one] |  |  |  |  | inhibition at 1 µM (17β-HSD3 [1]; Table 2 (17β-HSD3), read-out: Intact cells (%) (1 μM)): 14%; inhibition at 0.1 µM (17β-HSD3 [2]; Table 2 (17β-HSD3), read-out: Homo (%) (0.1 μM)): 10%; inhibition at 1 µM (17β-HSD3 [2]; Table 2 (17β-HSD3), 1 μM, read-out: Homo (%) (1 μM)): 60%; inhibition at 0.01 µM (17β-HSD3 [2]; [7]): 0% |
| Cc1cccc(OCCN2C[C@]3(CC[C@@]4(C)[C@@H](CC[C@@H]5[C@@H]4CC[C@]4(C)C(=O)CC[C@@H]54)C3)OC2=O)c1 [Compound 23a, (3R,5S,8R,9S,10S,13S,14S)-10,13-dimethyl-3′-[2-(3-methylphenoxy)ethyl]tetrahydrodecahydro-2′H-spiro[cyclopenta[α]phenanthrene-3,5′-[1,3]oxazolidine]-2′,17(2H)-dione] | 40% | 13% |  | 95% |  |
| CCCN(CCC)CCN1C[C@]2(CC[C@@]3(C)[C@@H](CC[C@@H]4[C@@H]3CC[C@]3(C)C(=O)CC[C@@H]43)C2)OC1=O [Compound 23f, (3R,5S,8R,9S,10S,13S,14S)-3′-[2-(dipropylamino)ethyl]-10,13-dimethyltetradecahydro-2′H-spiro[cyclopenta[α]phenanthrene-3,5′-[1,3]oxazolidine]-2′,17(2H)-dione] |  | 0% | 10% | 62% | Intact cells (%) (0.1 μM), tested in another experiment (17β-HSD3 [1]; Table 4, footnote b, 0.1 μM): 8^b % |
| C[C@]12CC[C@](O)(CN3CCN(C(=O)c4ccccc4)CC3)C[C@@H]1CC[C@@H]1[C@@H]2CC[C@]2(C)C(=O)CC[C@@H]12 [Compound 12a, (3α,5α)-3-hydroxy-3-{[4-(phenylcarbonyl)piperazin-1-yl]methyl}androstan-17-one] |  |  |  |  | inhibition at 0.1 µM (17β-HSD3 [1]; read-out: Intact cells (%) (0.1 μM), Table 3, 0.1 μM): 50%; inhibition at 0.01 µM (17β-HSD3 [2]; read-out: Homo (%) (0.01 μM), Table 3): 17%; inhibition at 0.1 µM (17β-HSD3 [2]; read-out: Homo (%) (0.1 μM), Table 3): 76% |
| C[C@]12CC[C@@]3(C[C@@H]1CC[C@@H]1[C@@H]2CC[C@]2(C)C(=O)CC[C@@H]12)CN(Cc1cc(C(F)(F)F)cc(C(F)(F)F)c1)C(=O)O3 [Compound 17h, (3R,5S,8R,9S,10S,13S,14)-3′-[3,5-bis(trifluoromethyl)benzyl]-10,13-dimethyletradecahydro-2′H-spiro[cyclopenta[α]phenanthrene-3,5′-[1,3]oxazolidine]-2′,17(2H)-dione] | 35% | 12% | 66% |  |  |
| C[C@]12CC[C@](O)(CN3CCN(Cc4cc(C(F)(F)F)cc(C(F)(F)F)c4)CC3)C[C@@H]1CC[C@@H]1[C@@H]2CC[C@]2(C)C(=O)CC[C@@H]12 [Compound 10j, (3α,5α)-3-({4-[3,5-bis(trifluoromethyl)benzyl]piperazin-1-yl}methyl)-3-hydroxyandrostan-17-one] |  |  |  |  | Intact cells (%) (0.1 μM) (17β-HSD3 [1]; Table 3, 0.1 μM): 25%; Homo (%) (0.01 μM) (17β-HSD3 [2]; Table 3): 25%; Homo (%) (0.1 μM) (17β-HSD3 [2]; Table 3): 83% |
| CC1CN(C(=O)c2ccccc2)C(C)CN1C[C@@]1(O)CC[C@@]2(C)[C@@H](CC[C@@H]3[C@@H]2CC[C@]2(C)C(=O)CC[C@@H]32)C1 (stereo partly drawn) [Compound 13a, (3α,5α)-3-{[(2ξ,5ξ)-2,5-dimethyl-4-(phenylcarbonyl)piperazin-1-yl]methyl}-3-hydroxyandrostan-17-one] |  |  |  |  | Intact cells (%) (0.1 μM) (17β-HSD3 [1]; Table 3, 0.1 μM): 78%; Homo (%) (0.01 μM) (17β-HSD3 [2]; Table 3): 24%; Homo (%) (0.1 μM) (17β-HSD3 [2]; Table 3): 87% |
| CCN(CCN1C[C@]2(CC[C@@]3(C)[C@@H](CC[C@@H]4[C@@H]3CC[C@]3(C)C(=O)CC[C@@H]43)C2)OC1=O)C1CCCCC1 [Compound 23e, (3R,5S,8R,9S,10S,13S,14S)-3′-{2-[cyclohexyl(ethyl)amino]ethyl}-10,13-dimethyltetradecahydro-2′H-spiro[cyclopenta[α]phenanthrene-3,5′-[1,3]oxazolidine]-2′,17(2H)-dione] | 2% | 2% | 21% | 72% |  |
| C[C@]12CC[C@](O)(CN3CCN(C(=O)c4cccc(C(F)(F)F)c4)CC3)C[C@@H]1CC[C@@H]1[C@@H]2CC[C@]2(C)C(=O)CC[C@@H]12 [Compound 12d, (3α,5α)-3-hydroxy-3-[(4-{[3-(trifluoromethyl)phenyl]carbonyl}piperazin-1-yl)methyl]androstan-17-one] |  |  |  |  | inhibition at 0.1 µM (17β-HSD3 [1]; Table 3, 0.1 μM, read-out: Intact cells (%) (0.1 μM)): 91%; inhibition at 0.01 µM (17β-HSD3 [2]; Table 3, read-out: Homo (%) (0.01 μM)): 10%; inhibition at 0.1 µM (17β-HSD3 [2]; Table 3, read-out: Homo (%) (0.1 μM)): 92% |
| COc1ccc(CN2C[C@]3(CC[C@@]4(C)[C@@H](CC[C@@H]5[C@@H]4CC[C@]4(C)C(=O)CC[C@@H]54)C3)OC2=O)cc1 [Compound 17c, (3R,5S,8R,9S,10S,13S,14S)-3′-(4-methoxybenzyl)-10,13-dimethyltetradecahydro-2′H-spiro[cyclopenta[α]phenanthrene-3,5′-[1,3]oxazolidine]-2′,17(2H)-dione] | 43% | 5% | 84% | 93% |  |
| C[C@]12CC[C@](O)(CN3CCN(c4ccccc4)CC3)C[C@@H]1CC[C@@H]1[C@@H]2CC[C@]2(C)C(=O)CC[C@@H]12 [Compound 7i, (3α,5α)-3-hydroxy-3-[(4-phenylpiperazin-1-yl)methyl]androstan-17-one] |  |  |  |  | inhibition at 1 µM (17β-HSD3 [1]; read-out: Intact cells (%) (1 μM), Table 2 (17β-HSD3)): 68%; inhibition at 0.01 µM (17β-HSD3 [2]; [7]): 13%; inhibition at 0.1 µM (17β-HSD3 [2]; read-out: Homo (%) (0.1 μM), Table 2 (17β-HSD3)): 78%; inhibition at 1 µM (17β-HSD3 [2]; read-out: Homo (%) (1 μM), Table 2 (17β-HSD3), 1 μM): 89% |
| C[C@]12CC[C@@]3(C[C@@H]1CC[C@@H]1[C@@H]2CC[C@]2(C)C(=O)CC[C@@H]12)CN(CCBr)C(=O)O3 [Compound 22, (3R,5S,8R,9S,10S,13S,14S)-3′-(2-bromoethyl)-10,13-dimethyltetrahydrodecahydro-2′H-spiro[cyclopenta[α]phenanthrene-3,5′-[1,3]oxazolidine]-2′,17(2H)-dione] | 31% | 17% |  | 93% |  |
| CC1CN(C(=O)c2cccc(C(F)(F)F)c2)C(C)CN1CC1(O)CCC2(C)C(CCC3C4CCC(=O)C4(C)CCC32)C1 (stereo not drawn) [Compound 13c, (3α,5α)-3-{[(2ξ,5ξ)-2,5-dimethyl-4-{[3-(trifluoromethyl)phenyl]carbonyl}piperazin-1-yl]methyl}-3-hydroxyandrostan-17-one] |  |  |  |  | Intact cells (%) (0.1 μM) (17β-HSD3 [1]; Table 3, 0.1 μM): 70%; Homo (%) (0.01 μM) (17β-HSD3 [2]; Table 3): 28%; Homo (%) (0.1 μM) (17β-HSD3 [2]; Table 3): 89% |
| C[C@]12CC[C@@]3(C[C@@H]1CC[C@@H]1[C@@H]2CC[C@]2(C)C(=O)CC[C@@H]12)CN(C1CCCCC1)C(=O)O3 [Compound 17i, (3R,5S,8R,9S,10S,13S,14S)-3′-cyclohexyl-10,13-dimethyltetradecahydro-2′H-spiro[cyclopenta[α]phenanthrene-3,5′-[1,3]oxazolidine]-2′,17(2H)-dione] | 29% | 13% | 75% | 78% |  |
| C[C@]12CC[C@@]3(C[C@@H]1CC[C@@H]1[C@@H]2CC[C@]2(C)C(=O)CC[C@@H]12)CN(Cc1cccc(C(F)(F)F)c1)C(=O)O3 [Compound 17g, (3R,5S,8R,9S,10S,13S,14S)-10,13-dimethyl-3′-[3-(trifluoromethyl)benzyl]tetradecahydro-2′H-spiro[cyclopenta[α]phenanthrene-3,5′-[1,3]oxazolidine]-2′,17(2H)-dione] | 36% | 16% | 80% |  |  |
